# “Also recorded” adds a separate entry of the source. Read-outs that look alike come from different tables or passages of the source.
# Assays:
# [1] = target: T1, insulin secretion regulation factor (ATIS1) (Mus musculus, UniProt Q6P5E4); test: Release of radiolabelled ATIS1 from arginine-immobilized agarose by amino acids and sugars; format: binding; details: silver stained gel, FIG. 8A
# T1 construct: made in house; host or cells: cell-free: TNT Quick coupled transcription/translation system (Promega)
# [2] = tested on: NIT-1 cells in which insulin secretion regulation factor was forcibly expressed; test: Insulin secretion by NIT-1 cells with forced expression of insulin secretion regulation factor (ELISA); format: cell-based, mouse
# wild type NIT-1 cells = test: Arginine-induced insulin secretion by wild type NIT-1 cells (ELISA); format: cell-based, mouse; details: arginine 0.1-20 mM, 10 minutes, FIG. 4
# [3] = target: T1, insulin secretion regulation factor (ATIS1); test: Release of radiolabelled ATIS1 from insulin-immobilized agarose by test substance; format: binding
# [4] = tested on: transformed cultured cells secreting fluorescently labeled insulin; test: Fluorescence microscopy of transformed cultured cells secreting fluorescently labeled insulin; format: cell-based; details: arginine 10 mM, 10 and 60 seconds after administration and thereafter, data not shown
# Procedure: Thus, transformed cultured cells were prepared so as to secrete fluorescently labeled insulin. Using the cells, it was possible to observe insulin secretion by arginine addition and temporal changes in the intracellular localization of insulin with a fluorescent microscope. […] This experimental system can also be applied to the screening of a candidate substance, other than arginine, that promotes insulin secretion.
# [5] = target: T2, insulin secretion regulation factor (Mus musculus, UniProt Q6P5E4); test: Competitive inhibition of radiolabelled arginine binding to insulin secretion regulation factor; set-up: made in house; host or cells: Escherichia coli; details: increasing concentration of cold competitor, FIG. 2B, FIG. 3A
# Target sequence in this assay (Q6P5E4 43-1551): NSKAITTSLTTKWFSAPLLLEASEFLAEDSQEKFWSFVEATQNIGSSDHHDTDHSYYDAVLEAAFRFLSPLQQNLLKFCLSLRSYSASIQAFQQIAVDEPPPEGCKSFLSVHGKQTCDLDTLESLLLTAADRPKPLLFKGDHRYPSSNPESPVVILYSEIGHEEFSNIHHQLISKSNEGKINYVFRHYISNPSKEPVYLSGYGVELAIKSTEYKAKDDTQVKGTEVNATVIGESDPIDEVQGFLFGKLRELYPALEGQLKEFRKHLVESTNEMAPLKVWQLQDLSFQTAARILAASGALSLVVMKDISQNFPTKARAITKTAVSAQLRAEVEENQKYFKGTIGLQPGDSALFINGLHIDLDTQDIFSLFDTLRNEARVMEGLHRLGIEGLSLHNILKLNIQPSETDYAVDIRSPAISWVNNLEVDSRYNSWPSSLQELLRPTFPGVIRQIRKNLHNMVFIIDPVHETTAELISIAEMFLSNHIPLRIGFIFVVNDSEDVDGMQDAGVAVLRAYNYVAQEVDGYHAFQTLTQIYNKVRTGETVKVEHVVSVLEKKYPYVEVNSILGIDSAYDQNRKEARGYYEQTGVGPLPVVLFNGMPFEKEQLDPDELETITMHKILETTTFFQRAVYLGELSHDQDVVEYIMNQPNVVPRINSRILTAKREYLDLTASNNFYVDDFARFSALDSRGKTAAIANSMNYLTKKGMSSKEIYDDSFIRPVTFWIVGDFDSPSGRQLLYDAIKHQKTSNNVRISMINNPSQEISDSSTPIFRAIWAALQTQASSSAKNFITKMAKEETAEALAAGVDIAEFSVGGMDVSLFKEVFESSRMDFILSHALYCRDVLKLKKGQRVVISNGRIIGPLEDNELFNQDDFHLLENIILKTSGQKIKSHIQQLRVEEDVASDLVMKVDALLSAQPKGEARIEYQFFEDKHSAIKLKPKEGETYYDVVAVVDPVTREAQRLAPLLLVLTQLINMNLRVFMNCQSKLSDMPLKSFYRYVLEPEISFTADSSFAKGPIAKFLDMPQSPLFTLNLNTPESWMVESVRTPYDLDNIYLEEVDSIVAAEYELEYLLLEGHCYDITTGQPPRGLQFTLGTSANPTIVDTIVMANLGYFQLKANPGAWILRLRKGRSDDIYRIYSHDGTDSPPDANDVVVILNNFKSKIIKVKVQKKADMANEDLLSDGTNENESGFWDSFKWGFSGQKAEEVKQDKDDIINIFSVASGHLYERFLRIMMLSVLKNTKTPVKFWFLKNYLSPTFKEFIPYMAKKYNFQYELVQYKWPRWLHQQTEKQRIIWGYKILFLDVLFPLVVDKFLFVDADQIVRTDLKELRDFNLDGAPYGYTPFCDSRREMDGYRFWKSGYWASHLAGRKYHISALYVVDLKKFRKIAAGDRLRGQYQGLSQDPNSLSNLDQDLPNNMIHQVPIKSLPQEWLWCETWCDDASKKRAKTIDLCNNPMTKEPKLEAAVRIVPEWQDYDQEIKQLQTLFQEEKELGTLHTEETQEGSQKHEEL
# [6] = target: T2, insulin secretion regulation factor; test: Disconnection of insulin from insulin secretion regulation factor by arginine; format: binding; set-up: made in house; host or cells: Escherichia coli; details: depending on amount of arginine added, FIG. 3C
# Target sequence in this assay (Q6P5E4 43-1551): as above
# [7] = target: T2, insulin secretion regulation factor; test: Partial protease digestion of radiolabelled insulin secretion regulation factor in presence of amino acid; format: binding; set-up: made in house; host or cells: cell-free: TNT Quick coupled transcription/translation system (Promega); details: 100 μM arginine, on ice 10 minutes, vs absence, phenylalanine or leucine
# Target sequence in this assay (Q6P5E4 whole entry): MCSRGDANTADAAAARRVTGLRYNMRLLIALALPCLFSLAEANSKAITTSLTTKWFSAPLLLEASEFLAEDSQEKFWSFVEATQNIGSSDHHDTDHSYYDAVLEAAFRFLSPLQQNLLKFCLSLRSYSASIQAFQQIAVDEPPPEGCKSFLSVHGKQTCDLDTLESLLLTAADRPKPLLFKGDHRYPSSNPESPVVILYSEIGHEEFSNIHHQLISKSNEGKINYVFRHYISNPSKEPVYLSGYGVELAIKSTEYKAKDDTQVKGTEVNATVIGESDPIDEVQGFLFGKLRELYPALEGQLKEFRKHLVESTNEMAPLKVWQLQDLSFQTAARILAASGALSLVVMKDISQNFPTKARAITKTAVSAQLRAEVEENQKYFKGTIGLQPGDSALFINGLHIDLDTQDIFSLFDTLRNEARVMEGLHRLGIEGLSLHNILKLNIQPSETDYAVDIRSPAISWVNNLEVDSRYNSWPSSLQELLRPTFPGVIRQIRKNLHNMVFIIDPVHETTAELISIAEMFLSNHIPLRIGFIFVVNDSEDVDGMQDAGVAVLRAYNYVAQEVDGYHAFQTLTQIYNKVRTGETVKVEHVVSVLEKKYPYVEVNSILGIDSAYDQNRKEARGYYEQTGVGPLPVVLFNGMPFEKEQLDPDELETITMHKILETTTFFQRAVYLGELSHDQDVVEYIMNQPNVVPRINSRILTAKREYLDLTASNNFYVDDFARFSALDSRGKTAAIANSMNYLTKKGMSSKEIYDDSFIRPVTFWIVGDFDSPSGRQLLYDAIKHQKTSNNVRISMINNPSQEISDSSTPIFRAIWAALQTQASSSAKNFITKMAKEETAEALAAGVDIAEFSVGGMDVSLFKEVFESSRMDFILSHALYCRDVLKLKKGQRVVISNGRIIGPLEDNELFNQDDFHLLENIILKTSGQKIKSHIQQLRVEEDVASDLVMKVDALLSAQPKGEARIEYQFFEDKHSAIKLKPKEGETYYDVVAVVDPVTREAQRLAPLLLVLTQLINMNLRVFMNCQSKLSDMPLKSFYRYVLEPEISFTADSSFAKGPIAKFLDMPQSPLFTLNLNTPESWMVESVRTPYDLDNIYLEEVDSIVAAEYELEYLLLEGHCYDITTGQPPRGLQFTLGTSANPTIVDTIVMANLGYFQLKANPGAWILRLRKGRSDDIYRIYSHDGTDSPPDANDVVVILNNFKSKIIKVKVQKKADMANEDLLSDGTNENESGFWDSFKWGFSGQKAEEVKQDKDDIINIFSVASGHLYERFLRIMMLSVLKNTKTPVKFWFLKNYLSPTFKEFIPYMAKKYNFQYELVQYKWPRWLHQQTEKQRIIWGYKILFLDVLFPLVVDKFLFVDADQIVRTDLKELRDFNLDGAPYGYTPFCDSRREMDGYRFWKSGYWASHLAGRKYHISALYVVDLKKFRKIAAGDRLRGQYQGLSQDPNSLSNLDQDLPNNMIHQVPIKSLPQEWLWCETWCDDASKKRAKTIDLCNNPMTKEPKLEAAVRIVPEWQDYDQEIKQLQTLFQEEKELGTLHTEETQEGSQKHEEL
# T1 sequence (Q6P5E4 43-1551): as the sequence (Q6P5E4 43-1551) above
compound,measurement,setting,value
"N[C@@H](Cc1ccccc1)C(=O)O [Phenylalanine, phenylalanine]",interaction (binding) with insulin secretion regulation factor ATIS1,[1],did not bind to ATIS1
N=C(N)NCCC[C@H](N)C(=O)O [arginine],amount of insulin secreted per unit time,[2],about 2 pg/cell/min
same,arginine-induced insulin secretion,wild type NIT-1 cells,"depending on arginine concentration, insulin secretion is promoted"
same,competition with insulin for insulin secretion regulation factor,[3],competes with insulin
same,interaction (binding) with insulin secretion regulation factor ATIS1,[1],interacted with the insulin secretion regulation factor
same,intracellular localization and secretion of fluorescently labeled insulin,[4],being extracellularly secreted thereafter resulting in the disappearance of fluorescence
same,radiolabelled arginine disconnected from insulin secretion regulation factor,[5],the radiolabelled arginine that had been bound was disconnected from insulin secretion regulation factor; also recorded: the amount of disconnected radiolabelled arginine increased
same,insulin disconnected from insulin secretion regulation factor,[6],the amount of disconnected insulin increases
same,resistance of insulin secretion regulation factor to chymotrypsin partial digestion,[7],significant resistance to chymotrypsin partial digestion
same,resistance of insulin secretion regulation factor to trypsin partial digestion,[7]; FIG. 2C,significant resistance to trypsin partial digestion
NC(=O)NCCC[C@H](N)C(=O)O [citrulline],interaction (binding) with insulin secretion regulation factor ATIS1,[1],did not exhibit the ATIS1 binding activity
CC(C)=CCc1cc(/C=C/C(=O)O)ccc1O [drupanin],amount of insulin secreted per unit time,"[2]; 10 mM substance, cultured 10 minutes, FIG. 6A",about 2 pg/cell/min
same,competition with insulin for insulin secretion regulation factor,"[3]; autoradiography, FIG. 6B",competes with insulin
NCCCC[C@H](N)C(=O)O [lysine],interaction (binding) with insulin secretion regulation factor ATIS1,[1],interacted with the insulin secretion regulation factor
NCCC[C@H](N)C(=O)O [ornithine],interaction (binding) with insulin secretion regulation factor ATIS1,[1],interacted with the insulin secretion regulation factor

# From patent US9109043B2 (Tokyo Institute of Technology, priority 2010, dated 2015)
